Assay results published in ChEMBL document CHEMBL1129171, “BMS-187257, a potent, selective, and novel heterocyclic 3 adrenergic receptor agonist” (Bioorg Med Chem Lett, 1996).
Active and inactive are the calls of the source. The rule behind the calls is not given here.

Key:
[1] = molecular target: T1, Beta-3 adrenergic receptor (Homo sapiens, UniProt P13945); test: stimulation of adenylyl cyclase activity in CHO-beta-3 adrenergic receptor cell membrane; expressed as maximal cyclase activity as a fraction of (-)-isoproterenol (IA = 1).; type: functional
Target sequence in this assay (P13945 whole entry, looked up): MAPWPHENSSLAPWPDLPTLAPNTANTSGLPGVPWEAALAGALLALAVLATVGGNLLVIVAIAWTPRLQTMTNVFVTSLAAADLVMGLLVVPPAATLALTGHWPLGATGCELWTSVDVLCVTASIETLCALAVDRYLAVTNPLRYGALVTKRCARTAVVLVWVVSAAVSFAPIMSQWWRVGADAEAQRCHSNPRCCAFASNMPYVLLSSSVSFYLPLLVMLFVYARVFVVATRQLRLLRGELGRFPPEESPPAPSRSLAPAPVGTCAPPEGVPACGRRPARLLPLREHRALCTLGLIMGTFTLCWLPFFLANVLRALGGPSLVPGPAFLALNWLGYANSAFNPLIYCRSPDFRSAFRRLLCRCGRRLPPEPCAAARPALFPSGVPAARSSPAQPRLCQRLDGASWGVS

[2] = molecular target: T1, Beta-3 adrenergic receptor; test: Compound was tested for its binding affinity against beta3 adrenergic receptor in CHO cell membrane using [125I]iodocyanopindolol as the radioligand.; type: cell membranes
Target sequence in this assay (P13945 whole entry): as the sequence (P13945 whole entry, looked up) above

[3] = molecular target: Beta-1 adrenergic receptor (Homo sapiens, UniProt P08588); test: Compound was tested for its binding affinity against Beta-1 adrenergic receptor in CHO cell membrane using [125I]iodocyanopindolol as the radioligand.; type: cell membranes
[4] = molecular target: Beta-2 adrenergic receptor (Homo sapiens, UniProt P07550); test: biochemical
Description: Compound was tested for its binding affinity against beta2 adrenergic receptor in CHO cell membrane using [125I]iodocyanopindolol as the radioligand.

[5] = molecular target: T1, Beta-3 adrenergic receptor; test: Compound was tested for its ability to stimulate adenylyl cyclase activity in CHO Beta-3 adrenergic receptor cell membrane.; type: functional
Target sequence in this assay (P13945 whole entry): as the sequence (P13945 whole entry, looked up) above

[6] = molecular target: T1, Beta-3 adrenergic receptor; test: Compound was tested for its ability to stimulate adenylyl cyclase activity in CHO-beta-3 adrenergic receptor cell membrane.; type: functional
Target sequence in this assay (P13945 whole entry): as the sequence (P13945 whole entry, looked up) above

Sequence of Beta-2 adrenergic receptor (P07550 whole entry): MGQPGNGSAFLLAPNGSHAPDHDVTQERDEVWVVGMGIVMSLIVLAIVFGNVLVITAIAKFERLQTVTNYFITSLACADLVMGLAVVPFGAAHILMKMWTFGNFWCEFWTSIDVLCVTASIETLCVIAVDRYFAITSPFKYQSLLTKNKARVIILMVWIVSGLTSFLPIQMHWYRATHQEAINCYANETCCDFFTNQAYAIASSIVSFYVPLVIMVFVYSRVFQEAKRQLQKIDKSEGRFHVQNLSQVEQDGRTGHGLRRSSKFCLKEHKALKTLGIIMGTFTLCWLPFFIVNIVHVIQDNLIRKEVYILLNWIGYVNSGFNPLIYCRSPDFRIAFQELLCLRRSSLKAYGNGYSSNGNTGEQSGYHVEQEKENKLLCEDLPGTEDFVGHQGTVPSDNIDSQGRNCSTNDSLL
Sequence of Beta-1 adrenergic receptor (P08588 whole entry): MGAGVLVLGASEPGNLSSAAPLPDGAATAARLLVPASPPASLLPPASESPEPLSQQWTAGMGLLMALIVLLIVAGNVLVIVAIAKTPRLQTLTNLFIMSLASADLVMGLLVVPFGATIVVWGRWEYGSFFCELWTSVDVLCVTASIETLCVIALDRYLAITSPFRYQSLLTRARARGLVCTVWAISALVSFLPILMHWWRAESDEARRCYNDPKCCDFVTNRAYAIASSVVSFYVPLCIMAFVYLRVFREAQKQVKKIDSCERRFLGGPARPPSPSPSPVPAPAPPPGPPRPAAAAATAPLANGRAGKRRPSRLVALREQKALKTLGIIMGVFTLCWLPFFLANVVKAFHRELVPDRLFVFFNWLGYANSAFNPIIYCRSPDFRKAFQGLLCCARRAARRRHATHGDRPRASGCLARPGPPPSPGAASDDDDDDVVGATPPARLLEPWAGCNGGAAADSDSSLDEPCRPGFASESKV

SMILES	IA [1]	Ki [2] [nM]	Ki [3] [µM]	Ki [4] [nM]	EC50 [5] [nM]	EC50 [6] [nM]
C[C@H](Cc1ncc(CCCCC(=O)O)s1)NC[C@H](O)COc1ccccc1	inactive	390	0.44	150		
C[C@H](Cc1ncc(CCCC(=O)O)s1)NCC(O)c1cccc(Cl)c1 (stereo partly specified)		36500	6.4	13900		
C[C@H](Cc1ncc(CCC(=O)O)s1)NC[C@H](O)COc1ccccc1	0.56	3530	3.44	1230	2760	
C[C@H](Cc1ncc(CCCC(=O)O)s1)NC[C@H](O)COc1ccccc1	0.72	760	1.3	1600	630	
C[C@H](Cc1ccc(OCC(=O)O)cc1)NC[C@H](O)c1cccc(Cl)c1	0.67					
O=C(O)COc1ccc(OCCNC[C@H](O)COc2ccccc2)cc1	0.71	520				550
C[C@H](Cc1ncc(CCC(=O)O)s1)NCC(O)c1cccc(Cl)c1 (stereo partly specified)	0.39	146000	58.1	11400	27600	
